According to patent US20240010684A1, “MASP INHIBITORY COMPOUNDS AND USES THEREOF” (BAYER AKTIENGESELLSCHAFT, priority 2020, published 2024):
Where a SMILES comes first, the peptide text is derived from it. Bridges are numbered along the chain shown (N, C = ends). [ ]: non-standard residue; d: D form. Oic = O=C(O)[C@@H]1C[C@@H]2CCCC[C@@H]2N1; tBuAla = CC(C)(C)C[C@H](N)C(=O)O; PEG4 = NCCOCCOCCOCCOCCC(=O)O; Pen = CC(C)(S)[C@H](N)C(=O)O; NMeC = CN[C@@H](CS)C(=O)O; Abu = CC[C@H](N)C(=O)O; Ahx = NCCCCCC(=O)O; Sar = CNCC(=O)O

How the values were obtained:
human MASP1 = human MASP1 (Homo sapiens (Human), UniProt P48740); assay: Biochemical human MASP1 assay (FRET substrate); settings: Average IC50; recombinant human MASP1; read-out: human MASP1 IC50
Procedure, shortened: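 Recombinant human MASP1 (aa 297-699, C-terminal His tag, HEK293-expressed, Ni-NTA purified) diluted to 20 nM in 50 mM HEPES pH 8,0, 100 mM NaCl, 0,01% CHAPS, 0.5 mM glutathione, preincubated with compound in DMSO; reaction started with 20 μM ABZ/Dnp FRET substrate solution. Fluorescence (ex 320/em 420 nm) after 60-120 min at 32 C; IC50 from % inhibition.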

human MASP2 = human MASP2 (Homo sapiens (Human), UniProt O00187); assay: Biochemical human MASP2 assay (FRET substrate); settings: Average IC50; recombinant human MASP2; read-out: human MASP2 IC50
Procedure, shortened: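 Mature recombinant human MASP2, expressed in HEK293 and purified by Ni-NTA affinity, was reacted with a DABCYL FRET peptide substrate (added as a 60 μM solution) for 60-120 min at 32 C. Fluorescence increase was read at ex 340/em 490 nm; IC50 was derived from % inhibition versus compound concentration.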

[1] = system: Human C3-DEPOSITION SERUM; assay: C3 deposition assay, human serum on mannan-coated plates; format: biochemical; settings: Average IC50, read-out: Human C3-DEPOSITION SERUM IC50
Experimental: 3. C3 Deposition Assay (Human, Rat, Mouse, Dog, Pig))
The C3 deposition assay was conducted essentially as described (reference). Multiwell plates (Greiner-Nunc 384 Maxi Sorp #464718) were coated over night with Mannan from Saccharomyces cerevisiae (Sigma M7504, 10 μg/mL in 0.05 M carbonate-bicarbonate buffer, pH 9.6) at 4° C. Wells were washed three times with TBS and subsequently incubated for 2 hours with 50 μL of 1% bovine serum albumin (BSA) in Tris-buffered saline (TBS) at 37° C. in order to block non-specific binding. After this step and each of the following incubation steps wells were washed three times with C3 wash buffer (TBS; 0.05% Tween 20; 5 mM CaCl2). […] When appropriately developed the color reaction was stopped by addition of 25 μL of stop solution (Sigma S5814) and quantified on a photometer by measuring absorption at a wavelength of 450 nm. Antibodies were diluted in C3 wash buffer supplemented with 0.5% BSA.

Sequence of human MASP2 (O00187 other isoform, or with tags, fused parts or gaps): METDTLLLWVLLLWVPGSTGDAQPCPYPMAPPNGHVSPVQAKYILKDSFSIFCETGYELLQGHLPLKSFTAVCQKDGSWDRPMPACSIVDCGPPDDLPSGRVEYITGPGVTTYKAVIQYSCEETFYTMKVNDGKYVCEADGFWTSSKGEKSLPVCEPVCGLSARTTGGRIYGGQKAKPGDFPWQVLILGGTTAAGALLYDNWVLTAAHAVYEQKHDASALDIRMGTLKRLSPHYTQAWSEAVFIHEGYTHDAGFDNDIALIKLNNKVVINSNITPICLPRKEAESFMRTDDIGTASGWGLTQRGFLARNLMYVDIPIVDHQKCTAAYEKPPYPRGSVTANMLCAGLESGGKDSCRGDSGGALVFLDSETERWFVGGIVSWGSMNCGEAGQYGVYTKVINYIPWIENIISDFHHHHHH
Sequence of human MASP1 (P48740 other isoform, or with tags, fused parts or gaps): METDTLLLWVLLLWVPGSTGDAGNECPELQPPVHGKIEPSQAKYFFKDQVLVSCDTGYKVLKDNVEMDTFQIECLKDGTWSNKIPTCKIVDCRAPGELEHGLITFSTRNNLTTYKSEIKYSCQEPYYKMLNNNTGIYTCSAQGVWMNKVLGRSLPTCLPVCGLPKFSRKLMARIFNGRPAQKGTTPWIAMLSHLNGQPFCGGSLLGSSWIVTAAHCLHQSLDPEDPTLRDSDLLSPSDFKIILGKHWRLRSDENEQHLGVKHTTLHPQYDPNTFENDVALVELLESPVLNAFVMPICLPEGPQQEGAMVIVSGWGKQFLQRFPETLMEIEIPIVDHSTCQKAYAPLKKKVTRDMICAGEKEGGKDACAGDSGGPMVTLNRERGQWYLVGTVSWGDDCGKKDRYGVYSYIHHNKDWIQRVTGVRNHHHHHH

SMILES	IC50 (human MASP1)	IC50 (human MASP2)	IC50 [1]
CC[C@H](C)[C@@H]1NC(=O)[C@H](C)NC(=O)CNC(=O)C[C@@H](C(N)=O)NC(=O)[C@@H]2CCCN2C(=O)[C@H]([C@@H](C)CC)NC(=O)[C@@H]2CSSC[C@H](NC1=O)C(=O)N[C@@H](CO)C(=O)N[C@@H](CCCNC(=N)N)C(=O)N[C@@H](CO)C(=O)N[C@@H](CC(C)C)C(=O)N1CCC[C@H]1C(=O)N1CCC[C@H]1C(=O)N[C@@H]([C@@H](C)CC)C(=O)N2 [Example 37] (GAICSRSLPPICIPD-NH2; disulfide 4-12; lactam N-15)	16 nM	140 nM	59.4 nM
CC[C@H](C)[C@@H]1NC(=O)[C@H](C)NC(=O)CNC(=O)[C@H](C)NC(=O)[C@H](CC(=O)O)NC(=O)[C@@H]2CCCN2C(=O)[C@H]([C@@H](C)CC)NC(=O)[C@H]2NC(=O)[C@H]([C@@H](C)CC)NC(=O)[C@@H]3CCCN3C(=O)[C@@H]3CCCN3C(=O)[C@H](CC(C)(C)C)NC(=O)[C@H](CO)NC(=O)[C@H](CCCNC(=N)N)NC(=O)[C@H](CO)NC(=O)[C@H](CSSC2(C)C)NC1=O [Example 26] (cyclo(AGAICSRS[tBuAla]PPI[Pen]IPD); disulfide 5-13)	12 nM	170 nM	
CC[C@H](C)[C@@H]1NC(=O)[C@H](C)NC(=O)CNC(=O)[C@H](C)NC(=O)C[C@@H](C(N)=O)NC(=O)[C@@H]2CCCN2C(=O)[C@H]([C@@H](C)CC)NC(=O)[C@H]2NC(=O)[C@H]([C@@H](C)CC)NC(=O)[C@@H]3C[C@@H]4CCCC[C@@H]4N3C(=O)[C@@H]3CCCN3C(=O)[C@H](CC(C)C)NC(=O)[C@H](CO)NC(=O)[C@H](CCCNC(=N)N)NC(=O)[C@H](CO)NC(=O)[C@H](CSSC2(C)C)NC1=O [Example 41] (AGAICSRSLP[Oic]I[Pen]IPD-NH2; disulfide 5-13; lactam N-16)	5.9 nM	190 nM	
CC[C@H](C)[C@@H]1NC(=O)[C@H](C)NC(=O)CNC(=O)CCCCCNC(=O)CC[C@@H](C(N)=O)NC(=O)[C@@H]2CCCN2C(=O)[C@H]([C@@H](C)CC)NC(=O)[C@H]2NC(=O)[C@H]([C@@H](C)CC)NC(=O)[C@@H]3C[C@@H]4CCCC[C@@H]4N3C(=O)[C@@H]3CCCN3C(=O)[C@H](CC(C)C)NC(=O)[C@H](CO)NC(=O)[C@H](CCCNC(=N)N)NC(=O)[C@H](CO)NC(=O)[C@H](CSSC2(C)C)NC1=O [Example 82] ([Ahx]GAICSRSLP[Oic]I[Pen]IPE-NH2; disulfide 5-13; lactam N-16)	69 nM	700 nM	
CC[C@H](C)[C@@H]1NC(=O)CCCCCNC(=O)[C@H]([C@@H](C)CC)NC(=O)[C@@H]2CSSC[C@H](NC1=O)C(=O)N[C@@H](CO)C(=O)N[C@@H](CCCNC(=N)N)C(=O)N[C@@H](CO)C(=O)N[C@@H](CC(C)C)C(=O)N1CCC[C@H]1C(=O)N1[C@@H](C[C@@H]3CCCC[C@@H]31)C(=O)N[C@@H]([C@@H](C)CC)C(=O)N2 [Example 95, N-{3-[(6S,9S,12S,15S,18R,21S,31S,34R,37S,39aS,40aS,44aS,46aS)-21,31,37-tri[(2S)-butan-2-yl]-9,15-bis(hydroxymethyl)-6-(2-methylpropyl)-5,8,11,14,17,20,23,30,33,36,39,46-dodecaoxohexatetracontahydro-1H,5H-18,34-(methanodithiomethano)pyrrolo[2′,1′:15,16][1,4,7,10,13,16,19,22,25,28,31,34]dodecaazacyclotetracontino[13,12-a]indol-12-yl]propyl}guanidine] (cyclo([Ahx]ICSRSLP[Oic]ICI); disulfide 3-11)	100 nM	110 nM	
CC[C@@H]1NC(=O)CCCCCNC(=O)[C@H](CC(=O)O)NC(=O)[C@@H]2CCCN2C(=O)[C@H]([C@@H](C)CC)NC(=O)[C@@H]2CSSC[C@H](NC(=O)[C@H]([C@@H](C)CC)NC1=O)C(=O)N[C@@H](CO)C(=O)N[C@@H](CCCNC(=N)N)C(=O)N[C@@H](CO)C(=O)N[C@@H](CC(C)(C)C)C(=O)N1CCC[C@H]1C(=O)N1CCC[C@H]1C(=O)N[C@@H]([C@@H](C)CC)C(=O)N2C [Example 33] (cyclo([Abu]ICSRS[tBuAla]PPI[NMeC]IPD[Ahx]); disulfide 3-11)	28 nM	62 nM	
CC[C@H](C)[C@@H]1NC(=O)[C@@H](C)NC(=O)CNC(=O)CCCCCNC(=O)CC[C@@H](C(N)=O)NC(=O)[C@@H]2CCCN2C(=O)[C@H]([C@@H](C)CC)NC(=O)[C@H]2NC(=O)[C@H]([C@@H](C)CC)NC(=O)[C@@H]3C[C@@H]4CCCC[C@@H]4N3C(=O)[C@@H]3CCCN3C(=O)[C@H](CC(C)C)NC(=O)[C@H](CO)NC(=O)[C@H](CCCNC(=N)N)NC(=O)[C@H](CO)NC(=O)[C@H](CSSC2(C)C)NC1=O [Example 84] ([Ahx]G[dA]ICSRSLP[Oic]I[Pen]IPE-NH2; disulfide 5-13; lactam N-16)	15 nM	87 nM	
CC[C@H](C)[C@@H]1NC(=O)[C@H](C)NC(=O)CN(C)C(=O)CCCCCNC(=O)CC[C@@H](C(N)=O)NC(=O)[C@@H]2CCCN2C(=O)[C@H]([C@@H](C)CC)NC(=O)[C@H]2NC(=O)[C@H]([C@@H](C)CC)NC(=O)[C@@H]3C[C@@H]4CCCC[C@@H]4N3C(=O)[C@@H]3CCCN3C(=O)[C@H](CC(C)C)NC(=O)[C@H](CO)NC(=O)[C@H](CCCNC(=N)N)NC(=O)[C@H](CO)NC(=O)[C@H](CSSC2(C)C)NC1=O [Example 77] ([Ahx][Sar]AICSRSLP[Oic]I[Pen]IPE-NH2; disulfide 5-13; lactam N-16)	11 nM	210 nM	
CC[C@H](C)[C@@H]1NC(=O)CNC(=O)CCOCCOCCOCCOCCNC(=O)[C@H](CC(=O)O)NC(=O)[C@@H]2CCCN2C(=O)[C@H]([C@@H](C)CC)NC(=O)[C@@H]2CSSC[C@H](NC1=O)C(=O)N[C@@H](CO)C(=O)N[C@@H](CCCNC(=N)N)C(=O)N[C@@H](CO)C(=O)N[C@@H](CC(C)C)C(=O)N1CCC[C@H]1C(=O)N1CCC[C@H]1C(=O)N[C@@H]([C@@H](C)CC)C(=O)N2 [Example 14] (cyclo(CIPD[PEG4]GICSRSLPPI); disulfide 1-8)	170 nM	240 nM	
CC[C@H](C)[C@@H]1NC(=O)[C@H](C)NC(=O)CCCCCNC(=O)[C@H](CC(=O)O)NC(=O)[C@@H]2CCCN2C(=O)[C@H]([C@@H](C)CC)NC(=O)[C@@H]2CSSC[C@H](NC1=O)C(=O)N[C@@H](CO)C(=O)N[C@@H](CCCNC(=N)N)C(=O)N[C@@H](CO)C(=O)N[C@@H](CC(C)C)C(=O)N1CCC[C@H]1C(=O)N1CCC[C@H]1C(=O)N[C@@H]([C@@H](C)CC)C(=O)N2 [Example 45] (cyclo(AICSRSLPPICIPD[Ahx]); disulfide 3-11)	92 nM	74 nM	
